{"source": "patent US20240226332A9", "about": "“GENE THERAPY FOR TREM2-ASSOCIATED DISEASES AND DISORDERS” (Eli Lilly and Company, priority 2022, published 2024)", "key": {"iPSC-derived microglia": {"test_system": "iPSC-derived microglia", "experiment": "Pharmacological CSF1R-inhibition (PLX3397) cell viability assay in human iPSC-derived microglia", "assay_type": "cell-based", "details": "150 nM or 200 nM PLX3397 in 0.1% DMSO, 8 hr, colorimetric viability kit", "description": "Methods: The iPSC-derived microglia as described in Example 4 either were treated with excipient (negative control) or were transduced with a rAAV vector having a TREM2 transgene (SEQ ID NO:26) encapsidated in AAV6TM capsid protein (SEQ ID NO:19) at a MOI of 2.0×10^3 vg/cell. 7 days post-transduction, 150 nM or 200 nM of PLX3397 in 0.1% DMSO was added to the cell culture media and incubated for additional 8 hr at 37° C. and 5% CO2. After this period of incubation, cells were assayed for viability using a colorimetric kit (Abcam)."}, "[1]": {"test_system": "CSF1R-inhibition mouse model (WT C57BL/6 mice fed PLX-chow)", "experiment": "In vivo efficacy of TREM2 rAAV in CSF1R-inhibition (PLX) mouse model for CRL", "description": "The rAAV was injected at a dose of either 1.8×10^10 vg (4.49×10^10 vg/g brain) or 1.8×10^11 vg (4.49×10^11 vg/g brain), respectively. Vector particles per g brain weight was based on an adult mouse brain weight of 400 mg. At 8 weeks of age (i.e., 4 weeks post-ICV injection), 1 excipient-treated group and both dose-treated groups were fed with PLX-containing mouse chow. Mice were fed with PLX-chow at 185 mg/kg for 1 week and then sacrificed at 9 weeks of age (i.e., 5 weeks post-ICV injection).\nBiodistribution was determined by measuring vg presence using ddPCR (with >50 vg/1 μg gDNA defined as positive)."}}, "data": [{"smiles": "FC(F)(F)c1ccc(CNc2ccc(Cc3c[nH]c4ncc(Cl)cc34)cn2)cn1", "note": "[PLX]", "values": [{"measurement": "cell death (cytotoxicity of PLX treatment)", "setting": "iPSC-derived microglia", "value": "about 80%"}, {"measurement": "number of IBA1+ microglia in brain", "setting": "[1]; PLX-chow 185 mg/kg for 1 week, either dose of rAAV+PLX compared to excipient+PLX", "value": "almost complete depletion of microglia throughout the brain"}, {"measurement": "expression of homeostatic microglia genes (P2RY12, HEXB)", "setting": "[1]; PLX-chow 185 mg/kg for 1 week, rAAV+PLX", "value": "decreased expression of genes associated with homeostatic microglia"}, {"measurement": "CSF1R expression (mRNA; protein)", "setting": "[1]; PLX-chow 185 mg/kg for 1 week, rAAV+PLX (both doses) compared to excipient+PLX", "value": "apparent at both the mRNA and protein level"}, {"measurement": "expression of disease associated microglia (DAM) genes (CCL12, CD48, CD68, LYZ1, PTPRC)", "setting": "[1]; excipient+PLX, rAAV+PLX compared to excipient-only", "value": "significant decrease in expression"}]}]}
